Source: US8278069B2, “Identification of a β-1,3-N-acetylgalactosaminyltransferase (CGTE) from Campylobacter jejuni LIO87” (National Research Council of Canada, priority 2005, dated 2012)

Key:
[1] = tested on: CgtE (CJL-107); experiment: Substrate specificity of CgtE (CJL-107), acceptor and donor substrates; format: biochemical, Campylobacter jejuni LIO87; conditions: for Activity: enzyme CgtE (CJL-107)
Excerpt: A nucleic acid encoding a CgtE polypeptide, or a subsequence thereof, can be characterized by assaying for the expressed product. Assays based on the detection of the physical, chemical, or immunological properties of the expressed protein can be used. For example, one can identify a cloned CgtE nucleic acid B, by the ability of a protein encoded by the nucleic acid to catalyze the transfer of a galactose moiety from a donor substrate to an acceptor substrate. In one method, capillary electrophoresis is employed to detect the reaction products. This highly sensitive assay involves using either saccharide or disaccharide aminophenyl derivatives which are labeled with fluorescein as described in Wakarchuk et al. (1996) J. Biol. Chem. 271 (45): 28271-276. To assay for CgtE activity, Galα-Lac-FCHASE or GalNAc-α-FCHASE is used as a substrate. The reaction products of other glycosyltransferases can be detected using capillary electrophoresis, e.g., to assay for a Neisseria lgtC enzyme, either FCHASE-AP-Lac or FCHASE-AP-Gal can be used, whereas for the Neisseria lgtB enzyme an appropriate reagent is FCHASE-AP-GlcNAc (Wakarchuk, supra). To assay for α2,8-sialyltransferase, GM3-FCHASE is used as a substrate. See, e.g., U.S. Pat. No. 6,503,744, which is herein incorporated by reference. Other methods for detection of oligosaccharide reaction products include thin layer chromatography and GC/MS and are disclosed in U.S. Pat. No. 6,503,744, which is herein incorporated by reference.
CgtE used both Galα-Lac-FCHASE and GalNAc-α-FCHASE as acceptor substrate. CgtE enzymatic activity was higher when Galα-Lac-FCHASE was used as the acceptor substrate.

[2] = tested on: CgtE; experiment: Characterization of CgtE enzymatic activity (pH, divalent cations, truncation); format: biochemical, Campylobacter jejuni LIO87; conditions: divalent cations necessary for activity
Excerpt: CgtE enzymatic activity was characterized further. CgtE activity was optimal from pH 7 to 7.5.

CgtE (CJL-107), sequence (as listed by the source): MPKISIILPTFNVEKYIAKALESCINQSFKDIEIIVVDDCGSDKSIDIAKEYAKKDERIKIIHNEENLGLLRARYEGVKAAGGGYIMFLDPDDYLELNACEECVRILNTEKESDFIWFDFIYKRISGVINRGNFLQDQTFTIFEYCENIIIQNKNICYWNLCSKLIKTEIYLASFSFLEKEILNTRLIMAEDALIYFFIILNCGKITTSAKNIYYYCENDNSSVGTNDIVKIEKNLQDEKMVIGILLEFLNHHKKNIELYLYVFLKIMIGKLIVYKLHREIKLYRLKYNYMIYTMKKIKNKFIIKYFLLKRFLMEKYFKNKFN

| Molecule | CgtE enzymatic activity, comparison of acceptor substrates ([1]; Galα-Lac-FCHASE versus GalNAc-α-FCHASE as acceptor) | Activity ([1]; donor UDP-Gal) [mU/mL] | Activity ([1]; donor UDP-GalNAc) [mU/mL] | CgtE activity with divalent cation relative to MgCl2 [2] |
| --- | --- | --- | --- | --- |
| Galα-Lac-FCHASE | higher | 7.0 | 63.5 | – |
| [Cl][Mn][Cl] [MnCl2] | – | – | – | two-fold higher |
| GalNAc-α-FCHASE | – | 0.6 | 0.3 | – |
